# Several values for one entry are separate records, joined by “and”; a condition that tells them apart may be missing. Identical values can stand only once. Entries after “also recorded” stand apart in the source; their conditions may differ.
# Tests used:
# p21^waf = assay: Tissue biomarker immunoblotting of PANC-1 xenograft tumors: p21waf; type: in vivo; settings: PANC-1 tumors at study completion; FK228 5 mg/kg Q4Dx3, gemcitabine 80 mg/kg Q3Dx4, or both
# Description: (§1) Specimen Collection: […] Tumor xenograft tissue and serum specimens were obtained from in vivo studies performed by the Preclinical Research Laboratory at the completion of the experiments. […] Serum was obtained from whole blood and stored frozen at -70° C. Tissue Biomarkers: Tumor levels of acetylated histone-4, histone-4, […] were quantified by immunoblotting as described. Briefly, frozen tissue was pulverized under liquid nitrogen and homogenized in hypotonic lysis buffer. Small aliquots of the extracts were used for analysis of protein concentration by micro-BCA assay with bovine serum albumin as a protein standard. An equal amount of extracts containing about 20-50 μg protein was electrophoresed in SDS polyacrylamide gels. Proteins were transferred to ImmunoBlot PVDF membrane and were probed with appropriate primary and secondary antibodies. The chemiluminescence signal was captured by autoradiography, quantified by densitometry and expressed as a ratio of actin in each sample lane. For each biomarker, means and standard errors were calculated in each treatment group. […] Following quantitative analysis of biomarker levels in each sample, the results were normalized for b-actin and expressed as percentages of untreated controls. […]
# acetylated histone 4 = assay: Tissue biomarker immunoblotting of PANC-1 xenograft tumors: acetylated histone 4; type: in vivo; settings: PANC-1 tumors at study completion; FK228 5 mg/kg Q4Dx3, gemcitabine 80 mg/kg Q3Dx4, or both
# Description: as §1
# [1] = tested on: PANC-1 human pancreatic tumor xenograft; assay: PANC-1 human pancreatic tumor xenograft tumor growth inhibition study (Example 3); type: in vivo, female nude mice (nu/nu); settings: PANC-1 study
# Description: (§2) (Madison, Wis.). […] Tumor measurements were converted to cubic millimeter tumor volume using the formula^(5): […] TGI values for each treatment group are reported at study completion; these calculations are based on the final study day. […] Individual mice lacking palpable tumors were classified as undergoing complete regression (CR). Animals experiencing partial or complete tumor regressions were censored from TGI calculations. However, data from these animals was included in statistical analysis calculations. In addition, weight data from these animals was included in daily and final group calculations. Tumor Necrosis-Degree of tumor necrosis was rated at each tumor measurement using the following arbitrary index: […]
# [2] = Animal weight and drug toxicity, BxPC-3 study
# Description: (§3) Model Information—Female nude mice (nu/nu) between 5 and 6 weeks of age weighing approximately 20 grams were obtained from Harlan, Inc. (Madison, Wis.). PANC-1, obtained from the ATCC, is a pancreas tumor cell line originating from a person^(1-2). BxPC-3, obtained from the American Type Culture Collection (ATCC), is a pancreas tumor cell line originating from a person^(3-4). PANC-1 Study: Animals were implanted subcutaneously (SC) by trocar with fragments of PANC-1 harvested from SC growing tumors in nude mice hosts. When tumors grew to approximately 135 cubic millimeters (mm^3) in size (17 days following implantation, animals were pair-matched by tumor size into treatment and control groups; each treatment group contained nine mice. BxPC-3 Study: Animals were implanted subcutaneously (SC) by trocar with fragments of BxPC-3 harvested from SC growing tumors in nude mice hosts. When tumors grew to approximately 85 cubic millimeters (mm^3) in size (19 days following implantation), animals were pair-matched by tumor size into treatment and control groups; each treatment group contained nine mice. Animals in both studies were ear-tagged and followed individually throughout the experiment.
# (§4) Study Design and Dosing—Initial doses were administered on Day 1 following pair-matching; both experiments were carried out as tumor growth inhibition (TGI) studies. Animals were dosed intravenously (IV) via tail vein with FK228 once every four days for three treatments (Q4Dx3) or by intraperitoneal (IP) injection with gemcitabine once every three days for four treatments (Q3Dx4), either alone or in combination, at the doses listed below (Table 1). To serve as a negative control, FK228 vehicle (2% ethanol, 8% propylene glycol, 90% 0.9% saline) was injected on a Q4Dx3 schedule.
# (§5) Animal Weights—Individual and group mean weights±SD and percent weight change through Day 25 (PANC-1) or Day 29 (BxPC-3) were recorded twice weekly until study completion beginning Day 1. Final group mean weights±SD and group nadir values are reported; weight data from individual animals experiencing technical or drug-related deaths was censored from final group calculations.
# (§6) Moribundity/Mortality—Animals were observed twice weekly for general moribundity and daily for mortality. Animal deaths were assessed as drug-related or technical based on factors including gross observation and weight loss; reported animal death information includes type, number, and day of death for each group.
# acetylated histone 3 = assay: Tissue biomarker immunoblotting of PANC-1 xenograft tumors: acetylated histone 3; type: in vivo; settings: PANC-1 tumors at study completion; FK228 5 mg/kg Q4Dx3, gemcitabine 80 mg/kg Q3Dx4, or both
# Description: as §1
# [3] = tested on: BxPC-3 human pancreatic tumor xenograft; assay: BxPC-3 human pancreatic tumor xenograft tumor growth inhibition study (Example 3); type: in vivo, female nude mice (nu/nu); settings: BxPC-3 study; for % TGI: Day 29
# Description: as §2
# c-Myc = assay: Tissue biomarker immunoblotting of PANC-1 xenograft tumors: c-Myc; type: in vivo; settings: PANC-1 tumors at study completion; FK228 5 mg/kg Q4Dx3, gemcitabine 80 mg/kg Q3Dx4, or both; actin-normalized vs control
# Description: as §1
# [4] = tested on: Panc-1 human pancreas tumors (oncogenic K-ras); assay: Panc-1 mouse xenograft model, tumor growth (Example 1); type: in vivo, female nude mice; settings: Panc-1 xenograft; N=9 mice per group
# Description: In this study, female nude mice were implanted subcutaneously (SC) by trocar with Panc-1 tumor fragments harvested from SC growing tumors in nude mice hosts. […] The day of treatment initiation was specified as Day 1. Vehicle control and FK228 were administered intravenously on a […] schedule (Days 1, 5, and 9). Gemcitabine was administered by an intraperitoneal injection on a […] schedule (Days 1, 4, 7, 10). Tumors were measured by Vernier calipers twice weekly.
# [5] = Animal weight and drug toxicity, PANC-1 study
# Description: as §3, §4, §5, §6
# [6] = at the evaluated doses and schedules
# [7] = Day 29, Gemcitabine 40 mg/kg IP Q3Dx4
# [8] = Day 29, Gemcitabine 80 mg/kg IP Q3Dx4
# [9] = Day 25, Gemcitabine 40 mg/kg IP Q3Dx4
# [10] = Day 25, Gemcitabine 80 mg/kg IP Q3Dx4
structure (smiles),measurement,setting,value
"Nc1ccn([C@@H]2O[C@H](CO)[C@@H](O)C2(F)F)c(=O)n1 [Gemcitabine, gemcitabine]",p21^waf expression,p21^waf,downregulated; also recorded: down-regulated
same,levels of acetylated histone 4 vs control,acetylated histone 4,on the control level
same,#PR/CR,[1]; Gemcitabine 40 mg/kg IP Q3Dx4,1/9 and 1/0
same,Activity according to NCI standards,[1]; Gemcitabine 40 mg/kg IP Q3Dx4,inactive
same,Tumor necrosis,[1]; Gemcitabine 40 mg/kg IP Q3Dx4,1/9 animals reported mild tumor necrosis and 4/9 reported moderate necrosis
same,#PR/CR,[1]; Gemcitabine 80 mg/kg IP Q3Dx4,0/9 and 0/0
same,% TR,[1]; Gemcitabine 80 mg/kg IP Q3Dx4,0%
same,Activity according to NCI standards,[1]; Gemcitabine 80 mg/kg IP Q3Dx4,inactive
same,Tumor necrosis,[1]; Gemcitabine 80 mg/kg IP Q3Dx4,"1/9 animals reported slight tumor necrosis, 2/9 reported mild tumor necrosis, and 1/9 reported moderate necrosis"
same,calculated TGI values,[1]; [6],less than 58%
same,Final weight data % change,[2]; [7],+9%
same,Final weight data mean ± SD,[2]; [7],25±3 G
same,Final weight data % change,[2]; [8],+1%
same,Final weight data mean ± SD,[2]; [8],22±4 G
same,Drug deaths total,[2]; Gemcitabine 40 mg/kg IP Q3Dx4,0/9 and 0
same,Weight nadir % change,[2]; Gemcitabine 40 mg/kg IP Q3Dx4,No weight loss
same,Drug deaths total,[2]; Gemcitabine 80 mg/kg IP Q3Dx4,0/9 and 0
same,Weight nadir % change,[2]; Gemcitabine 80 mg/kg IP Q3Dx4,−9%
same,Weight nadir day,[2]; Gemcitabine 80 mg/kg IP Q3Dx4,11
same,acetylation of histone 3,acetylated histone 3,significantly inhibited
same,% TGI,[3]; Gemcitabine 40 mg/kg IP Q3Dx4,20%
same,% TGI,[3]; Gemcitabine 80 mg/kg IP Q3Dx4,9%
same,#PR/CR,[3]; Gemcitabine 40 mg/kg IP Q3Dx4,0/9 and 0/0
same,Activity according to NCI standards,[3]; Gemcitabine 40 mg/kg IP Q3Dx4,inactive
same,Tumor necrosis,[3]; Gemcitabine 40 mg/kg IP Q3Dx4,1/9 animals reported severe tumor necrosis
same,#PR/CR,[3]; Gemcitabine 80 mg/kg IP Q3Dx4,0/9 and 0/0
same,Activity according to NCI standards,[3]; Gemcitabine 80 mg/kg IP Q3Dx4,inactive
same,Tumor necrosis,[3]; Gemcitabine 80 mg/kg IP Q3Dx4,1/9 animals reported mild tumor necrosis
same,calculated TGI values,[3]; [6],less than 58%
same,extent of inhibition of c-Myc expression,c-Myc,50%
same,tumor regression,[4],no regression
same,Final weight data % change,[5]; [9],+7%
same,Final weight data mean ± SD,[5]; [9],24±1 G
same,Final weight data % change,[5]; [10],+12%
same,Final weight data mean ± SD,[5]; [10],26±3 G
same,Drug deaths total,[5]; Gemcitabine 40 mg/kg IP Q3Dx4,0/9 and 0
same,Weight nadir % change,[5]; Gemcitabine 40 mg/kg IP Q3Dx4,−2%
same,Weight nadir day,[5]; Gemcitabine 40 mg/kg IP Q3Dx4,11
same,Drug deaths total,[5]; Gemcitabine 80 mg/kg IP Q3Dx4,0/9 and 0
same,Weight nadir % change,[5]; Gemcitabine 80 mg/kg IP Q3Dx4,−3%
same,Weight nadir day,[5]; Gemcitabine 80 mg/kg IP Q3Dx4,11

# Source: patent publication US9539303B2, “Treatment of Ras-expressing tumors” (Celgene Corporation, priority 2006, dated 2017)
